Measurements taken from patent US8017612B2, “Piperazine compound and use thereof as a HCV polymerase inhibitor” (priority 2006, dated 2011).
Counter-ions that a name gives are not always drawn.

Assays:
[1] = molecular target: T1, HCV polymerase (NS5B) type 1b (Hepatitis C virus genotype 1b, UniProt P26663); test: Assay of enzyme (HCV polymerase) inhibitory activity, type 1b enzyme; format: biochemical, HCV BK strain (type 1b); conditions: HCV polymerase inhibitory activity (IC50), 1b, type 1b enzyme 0.5 μg/ml, 25° C., 60 min
T1 construct: a region encoding NS5B (J Virol 1991 March, 65(3), 1105-13, 544 amino acids after deletion of 47 amino acids on the C-terminal); 6xHis (C); made in house; host or cells: Escherichia coli
Procedure, shortened: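 NS5B from HCV BK strain (type 1b), C-terminal 47 aa deleted, C-terminal His6-tagged, E. coli-expressed, 0.5 μg/ml, with ~450 nt substrate RNA carrying the 3′ UTR (polyU, 3′X) at 5 μg/ml. Incubation 60 min at 25 °C with 50 μM ATP/GTP/CTP, 2 μM UTP plus [3H]UTP, pH 7.5 Tris.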

[2] = molecular target: T2, HCV polymerase (NS5B) type 1a (Hepatitis C virus genotype 1a, UniProt P26664); test: Assay of enzyme (HCV polymerase) inhibitory activity, type 1a enzyme; format: biochemical, HCV type 1a (cloned from the blood of patients); conditions: HCV polymerase inhibitory activity (IC50), 1a, type 1a enzyme 1.5 μg/ml, 25° C., 60 min
T2 construct: made in house; host or cells: Escherichia coli (by the 'similar method' of the 1b enzyme)
Procedure, shortened: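 Patient-derived type 1a NS5B (C-terminal 47-aa deletion, His-tagged, E. coli-expressed) at 1.5 μg/ml was reacted with 5 μg/ml 3′UTR-containing substrate RNA, 50 μM ATP/GTP/CTP, 2 μM UTP plus [3H]UTP, pH 7.5, 25° C for 60 min. TCA-precipitated RNA radioactivity was counted; IC50 from ± compound.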

CCCc1ccc(S(=O)(=O)N2CCN(c3nc(C(=O)OCC)cs3)C[C@@H]2C(=O)NCc2ccc(C(C)C)cc2)cc1 [Example 296, 2-[(R)-3-(4-isopropyl-benzylcarbamoyl)-4-(4-propyl-benzenesulfonyl)-piperazin-1-yl]-thiazole-4-carboxylic acid ethyl ester]
IC50 [1]: < 0.1 µM
IC50 [2]: < 0.1 µM

CCCc1ccc(S(=O)(=O)N2CCN(c3nc(C)c(C(=O)OC)s3)C[C@@H]2C(=O)NCc2ccc(C(C)C)cc2)cc1 [Example 297, 2-[(R)-3-(4-isopropyl-benzylcarbamoyl)-4-(4-propyl-benzenesulfonyl)-piperazin-1-yl]-4-methyl-thiazole-5-carboxylic acid methyl ester]
IC50 [1]: < 0.1 µM
IC50 [2]: < 0.1 µM

CCCc1ccc(S(=O)(=O)N2CCN(c3nc(C(=O)O)cs3)C[C@@H]2C(=O)NCc2ccc(C(C)C)cc2)cc1 [Example 298, 2-[(R)-3-(4-isopropyl-benzylcarbamoyl)-4-(4-propyl-benzenesulfonyl)-piperazin-1-yl]-thiazole-4-carboxylic acid]
IC50 [1]: 0.1 to 1 µM
IC50 [2]: 0.1 to 1 µM

CCCc1ccc(S(=O)(=O)N2CCN(c3nc(C)c(C(=O)O)s3)C[C@@H]2C(=O)NCc2ccc(C(C)C)cc2)cc1 [Example 299, 2-[(R)-3-(4-isopropyl-benzylcarbamoyl)-4-(4-propyl-benzenesulfonyl)-piperazin-1-yl]-4-methyl-thiazole-5-carboxylic acid]
IC50 [1]: < 0.1 µM
IC50 [2]: < 0.1 µM

CC(C)c1ccc(CNC(=O)[C@H]2CN(C(=O)Nc3ccncn3)CCN2S(=O)(=O)c2ccc(C(F)(F)F)cc2)cc1 [Example 300, (R)-4-(4-trifluoromethyl-benzenesulfonyl)-piperazine-1,3-dicarboxylic acid 3-(4-isopropyl-benzylamide) 1-pyrimidin-4-ylamide]
IC50 [1]: < 0.1 µM
IC50 [2]: < 0.1 µM

CC(C)c1ccc(CNC(=O)[C@H]2CN(C(=O)Nc3ccnc(C(=O)OC(C)(C)C)c3)CCN2S(=O)(=O)c2ccc(C(F)(F)F)cc2)cc1 [Example 301, 4-{[(R)-3-(4-isopropyl-benzylcarbamoyl)-4-(4-trifluoromethyl-benzenesulfonyl)-piperazine-1-carbonyl]-amino}-pyridine-2-carboxylic acid tert-butyl ester]
IC50 [1]: < 0.1 µM
IC50 [2]: < 0.1 µM

COC(=O)c1cnc(N2CCN(S(=O)(=O)c3ccc(C(F)(F)F)cc3)[C@@H](C(=O)NCc3ccc(C(C)C)cc3)C2)s1 [Example 302, 2-[(R)-3-(4-isopropyl-benzylcarbamoyl)-4-(4-trifluoromethyl-benzenesulfonyl)-piperazin-1-yl]-thiazole-5-carboxylic acid methyl ester]
IC50 [1]: < 0.1 µM
IC50 [2]: 0.1 to 1 µM

COC(=O)c1ccc(N2CCN(S(=O)(=O)c3ccc(C(F)(F)F)cc3)[C@@H](C(=O)NCc3ccc(C(C)C)cc3)C2)nc1 [Example 303, 6-[(R)-3-(4-isopropyl-benzylcarbamoyl)-4-(4-trifluoromethyl-benzenesulfonyl)-piperazin-1-yl]-nicotinic acid methyl ester]
IC50 [1]: < 0.1 µM
IC50 [2]: < 0.1 µM

CC(C)c1ccc(CNC(=O)[C@H]2CN(CCc3ccncc3)CCN2S(=O)(=O)c2ccc(C(F)(F)F)cc2)cc1 [Example 304, (R)-4-(2-pyridin-4-yl-ethyl)-1-(4-trifluoromethyl-benzenesulfonyl)-piperazine-2-carboxylic acid 4-isopropyl-benzylamide]
IC50 [1]: 0.1 to 1 µM
IC50 [2]: 0.1 to 1 µM

CC(=O)N1CCN(S(=O)(=O)c2ccc(OC(F)(F)F)c(C(=O)O)c2)[C@@H](C(=O)NCc2ccc(C(C)C)cc2)C1 [Example 305, 5-[(R)-4-acetyl-2-(4-isopropyl-benzylcarbamoyl)-piperazine-1-sulfonyl]-2-trifluoromethoxy-benzoic acid]
IC50 [1]: < 0.1 µM
IC50 [2]: 0.1 to 1 µM

CC(=O)N1CCN(S(=O)(=O)c2ccc3c(c2)OC(F)(F)C(F)(F)O3)[C@@H](C(=O)NCc2ccc(C(C)C)cc2)C1 [Example 306, (R)-4-acetyl-1-(2,2,3,3-tetrafluoro-2,3-dihydro-benzo[1,4]dioxine-6-sulfonyl)-piperazine-2-carboxylic acid 4-isopropyl-benzylamide]
IC50 [1]: 0.1 to 1 µM
IC50 [2]: 0.1 to 1 µM

CC(=O)N1CCN(S(=O)(=O)c2ccc3c(c2)N(C)CCC3)[C@@H](C(=O)NCc2ccc(C(C)C)cc2)C1 [Example 307, (R)-4-acetyl-1-(1-methyl-1,2,3,4-tetrahydro-quinoline-7-sulfonyl)-piperazine-2-carboxylic acid 4-isopropyl-benzylamide]
IC50 [1]: < 0.1 µM
IC50 [2]: 0.1 to 1 µM

CC(C)c1ccc(CNC(=O)[C@H]2CN(C(=O)C(N)=O)CCN2S(=O)(=O)c2ccc(C(F)(F)F)cc2)cc1 [Example 308, (R)-4-aminooxalyl-1-(4-trifluoromethyl-benzenesulfonyl)-piperazine-2-carboxylic acid 4-isopropyl-benzylamide]
IC50 [1]: > 1 µM
IC50 [2]: > 1 µM

CCOC(=O)Cc1nnn(CC(=O)N2CCN(S(=O)(=O)c3ccc(C(F)(F)F)cc3)[C@@H](C(=O)NCc3ccc(C(C)C)cc3)C2)n1 [Example 309, (2-{2-[(R)-3-(4-isopropyl-benzylcarbamoyl)-4-(4-trifluoromethyl-benzenesulfonyl)-piperazin-1-yl]-2-oxo-ethyl}-2H-tetrazol-5-yl)-acetic acid ethyl ester]
IC50 [1]: < 0.1 µM
IC50 [2]: < 0.1 µM

CC(C)c1ccc(CNC(=O)[C@H]2CN(C(=O)Cn3nnc(CC(=O)O)n3)CCN2S(=O)(=O)c2ccc(C(F)(F)F)cc2)cc1 [Example 310, (2-{2-[(R)-3-(4-isopropyl-benzylcarbamoyl)-4-(4-trifluoromethyl-benzenesulfonyl)-piperazin-1-yl]-2-oxo-ethyl}-2H-tetrazol-5-yl)-acetic acid]
IC50 [1]: < 0.1 µM
IC50 [2]: 0.1 to 1 µM

CCOC(=O)Cc1nnnn1CC(=O)N1CCN(S(=O)(=O)c2ccc(C(F)(F)F)cc2)[C@@H](C(=O)NCc2ccc(C(C)C)cc2)C1 [Example 311, (1-{2-[(R)-3-(4-isopropyl-benzylcarbamoyl)-4-(4-trifluoromethyl-benzenesulfonyl)-piperazin-1-yl]-2-oxo-ethyl}-1H-tetrazol-5-yl)-acetic acid ethyl ester]
IC50 [1]: 0.1 to 1 µM
IC50 [2]: 0.1 to 1 µM

CC(C)c1ccc(CNC(=O)[C@H]2CN(C(=O)Cn3nnnc3CC(=O)O)CCN2S(=O)(=O)c2ccc(C(F)(F)F)cc2)cc1 [Example 312, (1-{2-[(R)-3-(4-isopropyl-benzylcarbamoyl)-4-(4-trifluoromethyl-benzenesulfonyl)-piperazin-1-yl]-2-oxo-ethyl}-1H-tetrazol-5-yl)-acetic acid]
IC50 [1]: 0.1 to 1 µM
IC50 [2]: > 1 µM

CC(C)c1ccc(CNC(=O)[C@H]2CN(C(=N)N)CCN2S(=O)(=O)c2ccc(C(F)(F)F)cc2)cc1 [Example 313, (R)-4-carbamimidoyl-1-(4-trifluoromethyl-benzenesulfonyl)-piperazine-2-carboxylic acid 4-isopropyl-benzylamide hydrochloride]
IC50 [1]: < 0.1 µM
IC50 [2]: < 0.1 µM

CC(C)c1ccc(CNC(=O)[C@H]2CN(C(=O)Nc3ccnc(C(=O)O)c3)CCN2S(=O)(=O)c2ccc(C(F)(F)F)cc2)cc1 [Example 314, 4-{[(R)-3-(4-isopropyl-benzylcarbamoyl)-4-(4-trifluoromethyl-benzenesulfonyl)-piperazine-1-carbonyl]-amino}-pyridine-2-carboxylic acid hydrochloride]
IC50 [1]: 0.1 to 1 µM
IC50 [2]: 0.1 to 1 µM

CC(C)c1ccc(CNC(=O)[C@H]2CN(c3ncc(C(=O)O)s3)CCN2S(=O)(=O)c2ccc(C(F)(F)F)cc2)cc1 [Example 315, 2-[(R)-3-(4-isopropyl-benzylcarbamoyl)-4-(4-trifluoromethyl-benzenesulfonyl)-piperazin-1-yl]-thiazole-5-carboxylic acid]
IC50 [1]: < 0.1 µM
IC50 [2]: 0.1 to 1 µM

CCOC(=O)CCCCCC(=O)N1CCN(S(=O)(=O)c2ccc(C(F)(F)F)cc2)[C@@H](C(=O)NCc2ccc(C(C)C)cc2)C1 [Example 316, 7-[(R)-3-(4-isopropyl-benzylcarbamoyl)-4-(4-trifluoromethyl-benzenesulfonyl)-piperazin-1-yl]-7-oxo-heptanoic acid ethyl ester]
IC50 [1]: 0.1 to 1 µM
IC50 [2]: 0.1 to 1 µM

CC(C)c1ccc(CNC(=O)[C@H]2CN(C(=O)CCCCCC(=O)O)CCN2S(=O)(=O)c2ccc(C(F)(F)F)cc2)cc1 [Example 317, 7-[(R)-3-(4-isopropyl-benzylcarbamoyl)-4-(4-trifluoromethyl-benzenesulfonyl)-piperazin-1-yl]-7-oxo-heptanoic acid]
IC50 [1]: 0.1 to 1 µM
IC50 [2]: 0.1 to 1 µM

CC(C)c1ccc(CNC(=O)[C@H]2CN(C(=O)Nc3ccncc3)CCN2S(=O)(=O)c2ccc(OC(F)(F)F)cc2)cc1 [Example 318, (R)-4-(4-trifluoromethoxy-benzenesulfonyl)-piperazine-1,3-dicarboxylic acid 3-(4-isopropyl-benzylamide) 1-pyridin-4-ylamide]
IC50 [1]: < 0.1 µM
IC50 [2]: < 0.1 µM
